Consider four compounds from US20200276211A1, “COMPOUNDS FOR TREATING NEAR VISION DISORDERS” (VIEWPOINT THERAPEUTICS, INC., priority 2017, published 2020).

For data set [1] the following is noted: in water; cited from earlier work.
In data set [2] the target is T1, recombinant alpha-crystallin core domain (ACD) of cryAB protein (residues 68-153) (Homo sapiens, UniProt P02511).
T1 construct: alpha-crystallin core domain (ACD) of cryAB protein (residues 68-153)
T1 sequence (P02511 68-153): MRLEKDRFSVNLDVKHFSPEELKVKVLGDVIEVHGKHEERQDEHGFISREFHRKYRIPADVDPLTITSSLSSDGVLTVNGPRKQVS
In words: Differential scanning fluorimetry (DSF), protein thermal stability change. Conditions: SYPRO orange. The class given is binding. As to the method:
2.4 μL of 10 mM compound stocks in DMSO were added to the wells of a 96-well plate containing 51.6 μL of 7 μM recombinant alpha-crystallin core domain (ACD) of cryAB protein (residues 68-153) in DSF buffer (50 mM Tris-HCl, 100 mM NaCl, 0.5 mM ZnCl2, 0.5 mM MgCl2, 0.5 mM CaCl2, pH8.0), and subsequently 6 μL 10× SYPRO orange protein gel stain (Invitrogen) was added for a final volume of 60 μL per well. Each well was mixed, and then 10 μL was added in quadruplicates to a MicroAmp Optical 384-well reaction plate with barcode (ThermoFisher). The plate was sealed with a MicroAmp Optical adhesive film (ThermoFisher), centrifuged at 1,000×g for 2 min, and loaded into a QuantStudio 6 Flex real-time PCR system (Applied Biosystems). The DSF assay was performed by heating the plate from 30° C. to 80° C. with 0.5° C. increments per cycle over 100 cycles. Each cycle was held for 90 s after reaching the temperature, and the fluorescent signal (520 nm excitation/558 nm emission) was measured.
The data curve was fitted using a Boltzmann model (GraphPad Prism Version 7) for a fitting range from 25° C. to the temperature at which the fluorescence signal was highest plus 3-5° C. The Tm was determined to be the temperature at the midpoint between the highest and lowest fluorescent signals on the curve. Results of the assay for compounds 1.18, 1.21 and 1.25 are in the following table and FIG. 1.
(In general: In DSF a fluorescence change marks the thermal transition of the protein.)

A short description of another data set: Plasma stability (human). The settings on record: 37° C., read-out: Plasma stability (human) t ½. The class given is in vitro ADME. How it is done: (§1) A 4 mM compound stock solution was prepared by dissolving the appropriate amount of compound in MeOH, then a […] was prepared by adding 2 μL aforementioned 4 mM stock solution in 78 μL DMSO. A 10 mM control stock solution was prepared by dissolving the appropriate amount of tetracaine in DMSO, then a 10 μM control working solution was prepared by diluting the stock in DMSO. A 1 mg/ml terfenadine mixed with 2 mg/mL tolbutamide stock solution was prepared by dissolving an appropriate amount of each in DMSO, then a 1 ng/mL terfenadine mixed with 2 ng/mL tolbutamide internal standard solution was prepared by diluting the stock solution in methanol:acetonitrile (1:1, v/v). Both stock and internal standard solutions were stored at 4° C. Whole blood was centrifuged (obtained from in life group or donors) at 4000 rpm at 4° C. for 15 min to obtain plasma. Plasma was stored at −80° C. for future use. Before use, plasma was pre-warmed at 37° C. in a water bath for 15 min (500 μL per compound or control). After warming, 5 μL compound or control was added into 495 μL plasma, then vortexed to mix. […] The MS detection was performed using a Sciex API 4000 Qtrap and 6500 Plus instrument, and each compound was analyzed by reverse phase HPLC.

The nature of data set [3]: Plasma stability (rabbit). The data set is classed as in vitro ADME. Conditions: 37° C., read-out: Plasma stability (rabbit) t ½. How it is done:
as §1

The nature of data set [4]: Chemical stability in PBS buffer. The class given is physicochemical. As to the method:
10 mM compound working solutions were made by adding 10 μL of a 50 mM DMSO stock solution in 40 μL methanol. To make 20 μM compound working solutions, 1 μL of a 10 mM stock solution is added to 499 μL of methanol. Internal standard and quenching solutions were prepared by dissolving 1 mg/mL of terfenadine or tolbutamide in appropriate amounts of DMSO. A quenching solution was prepared containing 25 ng/ml terfenadine plus 50 ng/ml tolbutamide by diluting both stock solutions together in a 1:1 mixture of methanol:acetonitrile. Phosphate buffered saline (PBS) solutions at pH5 and pH7 were prepared by adjusting the pH of stock PBS with concentrated hydrochloric acid. To tubes labeled with a pre-determined time point (0, 5, 15, 30, 60, 120 min) was added 2 μL of 20 μM compound working solution. In each tube, 38 μL of PBS buffer was added to the vial, vortexed, and incubated at 37° C. for the corresponding time. After incubation, 300 μL of the quenching solution containing internal standard was added to the tube and vortexed to mix. The sample was centrifuged at 4000 rpm for 15 min, and 100 μL of supernatant transferred to a 0.65 ml tube for LC/MS analysis. Each compound and timepoint was analyzed by reverse phase HPLC with MS detection performed using a Sciex API 4500 Qtrap.

Data set [5] can be described thus: Solubility remark in amyloid disaggregation assay. The settings on record: assay solution, 5% DMSO. The class given is physicochemical. How it is done: The procedure used to evaluate disassembly of amyloids in ex vivo cataractous solutions was adapted from Chemerovski-Glikman et al., Scientific Reports 8, Article number: 9341 (2018). Nuclear and cortical lens tissue from human donors (92F, 96M) was homogenized in PBS with protease inhibitor for 60 seconds on ice. The protein concentration of the lysate was measured by Bicinchoninic Acid Assay (Pierce BCA Protein Assay Kit, ThermoFisher), and then the lysate was diluted to a total protein concentration of 0.075 mg/mL. Thioflavin T dye (Sigma-Aldrich) was added to a final concentration of 1 μM. […] After incubation with orbital shaking at 37° C., the fluorescence was read every two hours for 94 hours at an excitation wavelength of 440 nm and emission wavelength of 485 nm. Results of the assay for compounds 1.18, 1.21, 1.25 or control are in FIG. 3.

Where [6] appears, read: PBS pH 5, 37° C., read-out: Chem stability (t ½ @ pH = 5).
The mark [7] stands for this setting: PBS pH 7, 37° C., read-out: Chem stability (t ½ @ pH = 7).

Read-outs that look alike come from different tables or passages of the source. Where only a bound is given, the exact number is not on record here.

As to `CC(C)CCC[C@@H](C)[C@H]1CC[C@H]2[C@@H]3CC=C4C[C@@H](O)CC[C@]4(C)[C@H]3CC[C@]12C` [cholesterol], the aqueous solubility entry in data set [1] is reported as “less than 0.5 mg/100 mL”.

Consider `C[C@H](CCCC(C)(C)O)[C@H]1CC[C@H]2[C@@H]3CC=C4C[C@@H](OC(=O)OCC[N+](C)(C)C)CC[C@]4(C)[C@H]3CC[C@]12C.[I-]` [Compound 1.25], for which the “Δ Tm (° C.) Mean (n = 2)” value in data set [2] was −1.8 °C. In addition, the half-life at 0.1 µM (in “Plasma stability (human)”; in data set [3]) was greater than 8.33 h in each case. For the same compound, the half-life at 1 µM in data set [4] (setting [6]) and in data set [4] (setting [7]) was greater than 8.33 h in each case.

As for `C[C@H](CCCC(C)(C)O)[C@H]1CC[C@H]2[C@@H]3CC=C4C[C@@H](OC(=O)CC[C@H](N)C(=O)O)CC[C@]4(C)[C@H]3CC[C@]12C` [Compound 1.21], the “Δ Tm (° C.) Mean (n = 2)” value in data set [2] is −1.7 °C.

For `C[C@H](CCCC(C)(C)O)[C@H]1CC[C@H]2[C@@H]3CC=C4C[C@@H](OC(=O)CCC(=O)O)CC[C@]4(C)[C@H]3CC[C@]12C` [Compound 1.18], in data set [2], the “Δ Tm (° C.) Mean (n = 2)” value was −5.7 °C. The half-life at 0.1 µM (in “Plasma stability (human)”; in data set [3]) was greater than 8.33 h in each case. The “solubility (in words)” value in data set [5] is recorded as “limited solubility”. Also, the half-life at 1 µM in data set [4] (setting [6]) and in data set [4] (setting [7]) was greater than 8.33 h in each case.
